Experimental findings from the METLIN SMRT retention time set (Domingo-Almenara et al. 2019) are described below.

The data set is described as follows: gradient 5% acetonitrile 3 min, to 50% in 2 min, to 85% in 15 min, held 3 min, 100 µL/min. Conditions: column: Zorbax Extend-C18 2.1 x 50 mm; eluents: water / acetonitrile, 0.1% formic acid. The essentials: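 Standards, all pure, were combined into mixtures of ~100 molecules and run at 100 μL/min on a Zorbax Extend-C18 column (2.1 × 50 mm, 1.8 μm) with water and acetonitrile, each containing 0.1% formic acid. A coupled quadrupole time-of-flight mass spectrometer operated in positive and negative ionization mode. Retention time values come from computationally picked adduct peaks, each inspected manually.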
`COc1ccc(N2CCN(C(=O)c3cc(NC(C)=O)cc4nc(C)ccc34)CC2)cc1` had an RP-LC retention time of 603 s.

Consider `Cc1ccc(-n2ncc3c(=O)n(Cc4nc(-c5ccc(Br)cc5)no4)cnc32)cc1`, for which the RP-LC retention time came to 1200 s.

`Cc1oc(-c2ccc(OC(C)C)cc2)nc1CSc1nc2ncccc2o1` displayed an RP-LC retention time of 1100 s.

On to `O=C(C1=CN(c2ccc(Oc3ccccc3)cc2)c2ccccc2S1(=O)=O)N1CCOCC1`, for which the RP-LC retention time was determined as 913 s.

In turn, `CCNC(=O)c1nc(C(=O)NC(C)C)cs1` had an RP-LC retention time of 656 s.

On to `Cc1nc(C)c(C(=O)N2CCCCCNC(=O)[C@@H]3CCC[C@@H]32)s1`, for which the RP-LC retention time was found to be 638 s.

Compound `Cc1cc(=O)n(CC(=O)Nc2ccccc2C)c(N2CCCC2)n1` returned an RP-LC retention time of 620 s.

`O=c1n(Cc2cccc(C(F)(F)F)c2)nc2ccc(-c3ccccc3)nn12` showed an RP-LC retention time of 887 s.

In turn, `O=S(=O)(c1ccc2nc(N3CCN(c4ccc(F)cc4)CC3)ccc2c1)N1CCCC1` came in with an RP-LC retention time of 951 s.

As to `c1ccc(-c2n[nH]c(-c3ccccn3)n2)nc1`, the RP-LC retention time was found to be 645 s.

Compound `Cc1ccc2c(c1)NC(=O)c1cc(NC(=O)c3ccno3)ccc1O2` had an RP-LC retention time of 719 s.

As to `CCCNC(=O)c1nc2cccnc2n(C)c1=O`, the RP-LC retention time worked out at 647 s.

In the case of `COC(=O)c1ccccc1NC(=O)Cn1c(=O)c(CCC(=O)NC2CCCC2)nc2ccccc21`, the RP-LC retention time is 898 s.

`COCCOCc1nc(C2CCCN2C(=O)c2ccoc2)no1` (stereo not drawn) yielded an RP-LC retention time of 656 s.

In the case of `CCn1nc(-c2ccc(C)c(S(=O)(=O)N3CCC(C(N)=O)CC3)c2)c2c(c1=O)CCCC2`, the RP-LC retention time came to 718 s.

In turn, `CC(C)c1cc(=O)n(CC(=O)Nc2nc3c(s2)CCCC3)cn1` showed an RP-LC retention time of 692 s.

Consider `Cc1ccc(S(=O)(=O)N2CCC(c3nc(C(=O)N4CCOCC4)c(C)o3)CC2)cc1`, for which the RP-LC retention time turned out to be 824 s.

In the case of `CC(C)n1c(=O)sc2cc(S(=O)(=O)N3CCC(C(=O)NCCc4ccccc4)CC3)ccc21`, the RP-LC retention time was 985 s.

The compound `Cn1c(=O)sc2cc(S(=O)(=O)N3CCC(C(=O)N4CCc5ccccc5C4)CC3)ccc21` registered an RP-LC retention time of 896 s.

The compound `Cc1c(C(=O)NCCCN2CCCCC2)oc2ccc3c(c12)C(O)CC(C)(C)O3` (stereo not drawn) returned an RP-LC retention time of 631 s.

The compound `COCCCNC(=O)c1ncoc1-c1ccccc1C(=O)N1CCCC1` gave an RP-LC retention time of 645 s.

`Cc1ccc2c(c1)NC1(CCN(S(=O)(=O)c3ccccc3F)CC1)c1cccn1-2` yielded an RP-LC retention time of 881 s.

For the compound `O=C(c1cnccn1)N1CCCC1c1noc(CO)n1` (stereo not drawn), the RP-LC retention time worked out at 572 s.

`COc1cccc(S(=O)(=O)N2CCCN(S(=O)(=O)c3ccccc3)CCC(=O)NCC2)c1` yielded an RP-LC retention time of 805 s.

`Cc1cccc(CN2CCN(C3CCN(C(=O)Nc4ccccc4)CC3)C2=O)c1`: the RP-LC retention time was 851 s.

In the case of `CCOc1ccc(-c2noc(Cn3c(=O)n(-c4ccccc4C)c(=O)c4sccc43)n2)cc1OC`, the RP-LC retention time is 960 s.

`Cc1cccc(NC(=O)C2CCN(S(=O)(=O)c3ccc4c(c3)sc(=O)n4C(C)C)CC2)n1` yielded an RP-LC retention time of 815 s.

In turn, `Cc1cccc(NC(=O)c2nc3ccccc3[nH]c2=O)c1` showed an RP-LC retention time of 771 s.

In turn, `O=C1CCCc2cc(S(=O)(=O)N3CCCC(C(=O)N4CCc5ccccc5C4)C3)ccc2N1` (stereo not drawn) had an RP-LC retention time of 792 s.

`CSc1cccc(NC(=O)Cn2cccc(-c3nc(-c4ccc(F)cc4)no3)c2=O)c1` showed an RP-LC retention time of 939 s.

`CN(C)c1ncncc1N1CCC(C(=O)NCc2ccco2)CC1` came in with an RP-LC retention time of 588 s.

With `COc1ccc(-c2ccc3nc(N4CCC(C(=O)N(C)C)CC4)sc3n2)cc1`, the RP-LC retention time is 828 s.

With `Cc1csc(-c2ccc(CNC(=O)C3CCOC3)cc2)n1` (stereo not drawn), the RP-LC retention time is 678 s.
